Assay results: the Kinase Knowledgebase extract (Sharma et al. 2016)

Target: EGFR (human) (UniProt P00533)
Sequence (P00533 whole entry, looked up): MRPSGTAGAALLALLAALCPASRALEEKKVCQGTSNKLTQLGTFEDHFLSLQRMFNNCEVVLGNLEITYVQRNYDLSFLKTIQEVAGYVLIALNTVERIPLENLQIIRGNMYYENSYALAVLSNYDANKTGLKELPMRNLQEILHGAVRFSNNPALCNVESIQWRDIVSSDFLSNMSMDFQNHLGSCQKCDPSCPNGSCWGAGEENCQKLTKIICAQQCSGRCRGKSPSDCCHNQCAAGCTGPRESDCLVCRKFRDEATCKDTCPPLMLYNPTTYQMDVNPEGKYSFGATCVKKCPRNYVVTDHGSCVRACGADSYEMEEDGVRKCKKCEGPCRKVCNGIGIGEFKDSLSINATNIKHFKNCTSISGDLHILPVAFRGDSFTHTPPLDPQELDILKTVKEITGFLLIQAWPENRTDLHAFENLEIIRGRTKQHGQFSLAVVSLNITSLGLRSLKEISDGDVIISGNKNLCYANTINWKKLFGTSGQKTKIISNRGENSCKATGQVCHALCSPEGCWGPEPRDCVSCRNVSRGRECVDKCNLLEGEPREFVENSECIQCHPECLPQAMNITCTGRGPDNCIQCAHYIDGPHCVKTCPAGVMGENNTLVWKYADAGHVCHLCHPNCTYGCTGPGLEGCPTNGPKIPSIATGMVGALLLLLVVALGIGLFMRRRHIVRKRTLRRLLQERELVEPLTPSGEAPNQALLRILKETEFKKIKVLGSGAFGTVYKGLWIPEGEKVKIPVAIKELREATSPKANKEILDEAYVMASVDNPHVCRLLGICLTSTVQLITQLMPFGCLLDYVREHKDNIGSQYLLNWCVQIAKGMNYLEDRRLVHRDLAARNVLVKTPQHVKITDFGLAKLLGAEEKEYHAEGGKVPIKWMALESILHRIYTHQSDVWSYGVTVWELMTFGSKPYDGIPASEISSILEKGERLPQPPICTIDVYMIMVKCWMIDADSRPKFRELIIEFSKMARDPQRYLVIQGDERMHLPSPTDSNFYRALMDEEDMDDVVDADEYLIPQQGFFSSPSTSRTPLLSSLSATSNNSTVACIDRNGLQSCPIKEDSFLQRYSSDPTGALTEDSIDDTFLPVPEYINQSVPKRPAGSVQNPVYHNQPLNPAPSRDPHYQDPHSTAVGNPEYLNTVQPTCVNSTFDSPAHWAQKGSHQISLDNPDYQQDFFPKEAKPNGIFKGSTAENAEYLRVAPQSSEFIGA

| IC50 [nM] | Structure (SMILES) |
| --- | --- |
| 1 | c1cn(CCCc2ccc(-c3cc4ncnc(Nc5ccc6[nH]ccc6c5)c4s3)cc2)cn1 |
| 68 | c1ccc(-c2cc3nccc(Nc4ccc5[nH]ccc5c4)c3s2)cc1 |
| 5 | CC(=O)NCCNCc1ccc(-c2cc3nccc(Nc4ccc5[nH]ccc5c4)c3s2)cc1 |
| 5 | c1cn(CCCc2ccc(-c3cc4nccc(Nc5ccc6[nH]ccc6c5)c4s3)cc2)cn1 |
| 39 | c1csc(-c2cc3nccc(Nc4ccc5[nH]ccc5c4)c3s2)c1 |
| 1 | c1nc(Nc2ccc3[nH]ccc3c2)c2sc(-c3ccc(NCCN4CCCC4)cc3)cc2n1 |
| 7 | NC(=O)C1CCN(Cc2ccc(-c3cc4nccc(Nc5ccc6[nH]ccc6c5)c4s3)cc2)CC1 |
| 1 | NC(=O)C1CCN(Cc2ccc(-c3cc4ncnc(Nc5ccc6[nH]ccc6c5)c4s3)cc2)CC1 |
| 2 | CC(=O)NCCNCc1ccc(-c2cc3ncnc(Nc4ccc5[nH]ccc5c4)c3s2)cc1 |
| 8 | CC(C)(CO)NCc1ccc(-c2cc3nccc(Nc4ccc5[nH]ccc5c4)c3s2)cc1 |
